Test results from PubChem BioAssay AID1963858 (Molecular Pharmacology Branch, DTP, NCI, 2024).

Test system: HOP-62 multicell spheroids with HUVEC/MSC, viability
Assay: Anticancer human tumor HOP-62 cell line growth inhibition [KRAS2];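 further: viability read after a week of compound exposure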;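 on viability, T/C: 100% = DMSO vehicle-treated spheroids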
Settings: for IC50: curve of first compound; for viability, T/C: stronger effect = lower value; active means viability on the fitted dose curve at most 10% of control; inactive means the rest
Procedure, shortened: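 KRAS-mutant tumor cells were grown as spheroids with HUVEC endothelial cells and human MSCs as stroma. Targeted agents were tested alone and with KRAS pathway inhibitors. Doses started at or near clinical Cmax, or 10 microM, descending half-log.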

[1] = second compound 0.0316 µM, first compound 0.0316 µM
[2] = second compound 0.0316 µM, first compound 0.1 µM
[3] = second compound 0.0316 µM, first compound 0.316 µM
[4] = second compound 0.0316 µM, first compound 1 µM
[5] = second compound 0.0316 µM, first compound 3.16 µM
[6] = second compound 0.0316 µM, first compound 10 µM
[7] = second compound 0.1 µM, first compound 0.0316 µM
[8] = second compound 0.1 µM, first compound 0.1 µM
[9] = second compound 0.1 µM, first compound 0.316 µM
[10] = second compound 0.1 µM, first compound 1 µM
[11] = second compound 0.1 µM, first compound 3.16 µM
[12] = second compound 0.1 µM, first compound 10 µM
[13] = second compound 0.316 µM, first compound 0.0316 µM
[14] = second compound 0.316 µM, first compound 0.1 µM
[15] = second compound 0.316 µM, first compound 0.316 µM
[16] = second compound 0.316 µM, first compound 1 µM
[17] = second compound 0.316 µM, first compound 3.16 µM
[18] = second compound 0.316 µM, first compound 10 µM
[19] = second compound 1 µM, first compound 0.0316 µM
[20] = second compound 1 µM, first compound 0.1 µM
[21] = second compound 1 µM, first compound 0.316 µM
[22] = second compound 1 µM, first compound 1 µM
[23] = second compound 1 µM, first compound 3.16 µM
[24] = second compound 1 µM, first compound 10 µM
[25] = second compound 3.16 µM, first compound 0.0316 µM
[26] = second compound 3.16 µM, first compound 0.1 µM
[27] = second compound 3.16 µM, first compound 0.316 µM
[28] = second compound 3.16 µM, first compound 1 µM
[29] = second compound 3.16 µM, first compound 3.16 µM
[30] = second compound 3.16 µM, first compound 10 µM

CC(C)NCC(C(=O)N1CCN(c2ncnc3c2C(C)CC3O)CC1)c1ccc(Cl)cc1 (stereo not given) + C=CC(=O)N1CCN(c2nc(OCC3CCCN3C)nc3c2CCN(c2cccc4cccc(C)c24)C3)CC1CC#N
inactive: viability, T/C [1] 76.8% | viability, T/C [2] 57.4% | viability, T/C [3] 42.4% | viability, T/C [4] 18.6% | viability, T/C [5] 8.82% | viability, T/C [7] 55.9% | viability, T/C [8] 39.7% | viability, T/C [9] 16.1% | viability, T/C [13] 39.4% | viability, T/C [14] 29.7% | viability, T/C [15] 15.2% | viability, T/C [19] 29.8% | viability, T/C [20] 21% | viability, T/C [21] 14.1%
< 31.6 nM: IC50 (second compound 0.316 µM) | IC50 (second compound 1 µM) | IC50 (second compound 3.16 µM)
active: viability, T/C [6] 6.71% | viability, T/C [10] 9.65% | viability, T/C [11] 6.16% | viability, T/C [12] 5.4% | viability, T/C [16] 9.41% | viability, T/C [17] 5.86% | viability, T/C [18] 5.37% | viability, T/C [22] 7.91% | viability, T/C [23] 5.78% | viability, T/C [24] 5% | viability, T/C [25] 0.51% | viability, T/C [26] 0.35% | viability, T/C [27] 0.44% | viability, T/C [28] 0.32% | viability, T/C [29] 0.31% | viability, T/C [30] 0.41%
48 nM: IC50 (second compound 0.1 µM)
173 nM: IC50 (second compound 0.0316 µM)

CC1(C)CCC(CN2CCN(c3ccc(C(=O)NS(=O)(=O)c4ccc(NCC5CCOCC5)c([N+](=O)[O-])c4)c(Oc4cnc5[nH]ccc5c4)c3)CC2)=C(c2ccc(Cl)cc2)C1 + C=CC(=O)N1CCN(c2nc(OCC3CCCN3C)nc3c2CCN(c2cccc4cccc(C)c24)C3)CC1CC#N
active: viability, T/C [25] 1.22% | viability, T/C [26] 0.15% | viability, T/C [27] 0.14% | viability, T/C [28] 0.16% | viability, T/C [29] 0.14% | viability, T/C [30] 0.18%
1510 nM: IC50 (second compound 0.0316 µM)
< 31.6 nM: IC50 (second compound 0.1 µM) | IC50 (second compound 0.316 µM) | IC50 (second compound 1 µM) | IC50 (second compound 3.16 µM)
inactive: viability, T/C [1] 58.8% | viability, T/C [2] 54.1% | viability, T/C [3] 54.9% | viability, T/C [4] 56% | viability, T/C [5] 39.5% | viability, T/C [6] 22.7% | viability, T/C [7] 48.9% | viability, T/C [8] 41.4% | viability, T/C [9] 37.8% | viability, T/C [10] 36.4% | viability, T/C [11] 37.2% | viability, T/C [12] 21.6% | viability, T/C [13] 36.6% | viability, T/C [14] 41.6% | viability, T/C [15] 26.4% | viability, T/C [16] 38.2% | viability, T/C [17] 26.9% | viability, T/C [18] 16% | viability, T/C [19] 24.6% | viability, T/C [20] 22.6% | viability, T/C [21] 27.1% | viability, T/C [22] 22.9% | viability, T/C [23] 24.1% | viability, T/C [24] 5.4%

CC1COCCN1c1cc(-c2ccnn2C)c2ccnc(-c3ccn[nH]3)c2n1 (stereo not given) + C=CC(=O)N1CCN(c2nc(OCC3CCCN3C)nc3c2CCN(c2cccc4cccc(C)c24)C3)CC1CC#N
< 10 nM: IC50 (second compound 1 µM) | IC50 (second compound 3.16 µM)
30.9 nM: IC50 (second compound 0.1 µM)
inactive: viability, T/C (second compound 0.0316 µM, first compound 0.01 µM) 94.9% | viability, T/C [1] 55.4% | viability, T/C [2] 28.6% | viability, T/C [3] 17.6% | viability, T/C [4] 14% | viability, T/C [5] 12.8% | viability, T/C (second compound 0.1 µM, first compound 0.01 µM) 79.4% | viability, T/C [7] 49.3% | viability, T/C [8] 22.7% | viability, T/C [9] 12% | viability, T/C [10] 11.7% | viability, T/C [11] 10% | viability, T/C (second compound 0.316 µM, first compound 0.01 µM) 54% | viability, T/C [13] 30.3% | viability, T/C [14] 19.4% | viability, T/C [15] 10.9% | viability, T/C (second compound 1 µM, first compound 0.01 µM) 27.2% | viability, T/C [19] 18.6% | viability, T/C [20] 9.29%
39.9 nM: IC50 (second compound 0.0316 µM)
active: viability, T/C [16] 9.7% | viability, T/C [17] 7.82% | viability, T/C [21] 8.75% | viability, T/C [22] 8.51% | viability, T/C [23] 7.02% | viability, T/C (second compound 3.16 µM, first compound 0.01 µM) 2.88% | viability, T/C [25] 1.59% | viability, T/C [26] 0.93% | viability, T/C [27] 0.21% | viability, T/C [28] 0.17% | viability, T/C [29] 3.92%
12.2 nM: IC50 (second compound 0.316 µM)
